Measured values reported in article PMC6318325, “The conformational changes coupling ATP hydrolysis and translocation in a bacterial DnaB helicase” (Nature Communications, 2019).

Legend:
HpDnaB (DnaB) [1] = biological target: T1, HpDnaB (DnaB) (Helicobacter pylori, UniProt O25916); assay: solid-state […] CP and […] MAS NMR of sedimented complex; conditions: no DNA, NMR at 278 K, nucleotide-binding domain
T1 construct: full length (488 residues), no tag stated (heparin and anion exchange purification); pACYC-duet1, E. coli BL21 Star (DE3); 13C-15N labelled for NMR; hexameric assembly, dodecamer named in anisotropy assay; nucleotide site at interface of two monomers
T1 sequence (O25916 1-488): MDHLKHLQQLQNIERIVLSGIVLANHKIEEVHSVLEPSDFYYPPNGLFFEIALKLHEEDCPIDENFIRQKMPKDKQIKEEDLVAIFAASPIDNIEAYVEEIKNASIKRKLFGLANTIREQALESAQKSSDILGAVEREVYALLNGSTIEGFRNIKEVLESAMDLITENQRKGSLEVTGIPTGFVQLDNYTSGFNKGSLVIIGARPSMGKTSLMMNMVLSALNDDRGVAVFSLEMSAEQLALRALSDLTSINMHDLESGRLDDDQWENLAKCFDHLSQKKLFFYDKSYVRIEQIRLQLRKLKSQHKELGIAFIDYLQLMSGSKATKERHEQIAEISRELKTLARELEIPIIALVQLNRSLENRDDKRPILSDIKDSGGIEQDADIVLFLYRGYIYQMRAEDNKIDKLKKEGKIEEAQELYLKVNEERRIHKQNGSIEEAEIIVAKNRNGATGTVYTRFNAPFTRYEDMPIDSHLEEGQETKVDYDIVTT

HpDnaB (DnaB) [2] = biological target: T1, HpDnaB (DnaB); assay: […] solid-state NMR, ATP turned over to ADP during sample preparation; type: biochemical; conditions: 5 mM MgCl2, 5 mM ATP, pH 7.5, 130 mM NaCl, 4 °C, no DNA
[3] = biological target: T2, HpDnaB replicative helicase (Helicobacter pylori, UniProt O25916 1-488); assay: fluorescence anisotropy; 0.5 mM ATP, 5 mM MgCl2; Hill fit h 0.6509; Anisotropy: 20 mM Hepes pH 7.5, 5 mM MgCl2, 50 mM potassium acetate, 5% glycerol, 0.2 mg/ml BSA, 0.5 mM nucleotide, 1 nM DNA, 0-8 uM DnaB (dodecamer), temperature not stated; NMR: protein buffer 2.5 mM sodium phosphate pH 7.5, 130 mM NaCl, 278 K; conditions: protein: recombinant; chain copies: 12; label: 5'-FAM; single strand
T2 sequence: T1 sequence (O25916 1-488)

[4] = biological target: T2, HpDnaB replicative helicase; assay: fluorescence anisotropy; 0.5 mM ADP:AlF4-, 5 mM MgCl2; Hill fit h 1.160; Anisotropy: 20 mM Hepes pH 7.5, 5 mM MgCl2, 50 mM potassium acetate, 5% glycerol, 0.2 mg/ml BSA, 0.5 mM nucleotide, 1 nM DNA, 0-8 uM DnaB (dodecamer), temperature not stated; NMR: protein buffer 2.5 mM sodium phosphate pH 7.5, 130 mM NaCl, 278 K; conditions: protein: recombinant; chain copies: 12; label: 5'-FAM; single strand
[5] = biological target: T2, HpDnaB replicative helicase; assay: fluorescence anisotropy; 0.5 mM AMP-PCP, 5 mM MgCl2; Hill fit; Supplementary Table 4 fit instead prints 47.43 +/- 2.648, h 0.7349 (column order inferred); Anisotropy: 20 mM Hepes pH 7.5, 5 mM MgCl2, 50 mM potassium acetate, 5% glycerol, 0.2 mg/ml BSA, 0.5 mM nucleotide, 1 nM DNA, 0-8 uM DnaB (dodecamer), temperature not stated; NMR: protein buffer 2.5 mM sodium phosphate pH 7.5, 130 mM NaCl, 278 K; conditions: protein: recombinant; chain copies: 12; label: 5'-FAM; single strand

Nc1ncnc2c1ncn2[C@@H]1O[C@H](COP(=O)(O)OP(=O)(O)O)[C@@H](O)[C@H]1O [ADP]
solid-state 31P CP and 13C MAS NMR of sedimented complex (HpDnaB (DnaB) [1]; 5 mM MgCl2, 5 mM ADP, pH 7.5, 130 mM NaCl): The nucleotides are thus indeed bound to the protein.

Nc1ncnc2c1ncn2[C@@H]1O[C@H](COP(=O)(O)OP(=O)(O)CP(=O)(O)O)[C@@H](O)[C@H]1O [AMP-PCP]
solid-state 31P CP and 13C MAS NMR of sedimented complex (HpDnaB (DnaB) [1]; 5 mM MgCl2, pH 7.5, 130 mM NaCl, 15 mM nucleotide): The nucleotides are thus indeed bound to the protein.

Nc1ncnc2c1ncn2[C@@H]1O[C@H](COP(=O)(O)OP(=O)(O)OP(=O)(O)O)[C@@H](O)[C@H]1O [ATP]
31P solid-state NMR, ATP turned over to ADP during sample preparation (HpDnaB (DnaB) [2]): Addition of ATP to the apo form yields the ADP spectrum, implying that ATP is hydrolyzed

B1: 5'-FAM-(dT)20 (ssDNA)
DNA: TTTTTTTTTTTTTTTTTTTT
Kd [3]: 14 ± 3 nM
Kd [4]: 0.83 ± 0.03 nM
Kd [5]: 58 ± 14 nM
